By AC50 is commonly meant the concentration at which the activity in the assay is half-maximal.

In ChEMBL document CHEMBL5291721, “A preclinical secondary pharmacology resource illuminates target-adverse drug reaction associations of marketed drugs” (Nat Commun, 2023) one finds AC50 data, which are given here for 2 compounds.

Some targets named below: D(3) dopamine receptor (Homo sapiens, UniProt P35462); Melanocortin receptor 3 (Homo sapiens, UniProt P41968); Adenosine receptor A2a (Homo sapiens, UniProt P29274); Cannabinoid receptor 1 (Homo sapiens, UniProt P21554).
Another assay has as its target T1, Estrogen receptor (Homo sapiens, UniProt P03372).
T1 sequence (P03372 whole entry): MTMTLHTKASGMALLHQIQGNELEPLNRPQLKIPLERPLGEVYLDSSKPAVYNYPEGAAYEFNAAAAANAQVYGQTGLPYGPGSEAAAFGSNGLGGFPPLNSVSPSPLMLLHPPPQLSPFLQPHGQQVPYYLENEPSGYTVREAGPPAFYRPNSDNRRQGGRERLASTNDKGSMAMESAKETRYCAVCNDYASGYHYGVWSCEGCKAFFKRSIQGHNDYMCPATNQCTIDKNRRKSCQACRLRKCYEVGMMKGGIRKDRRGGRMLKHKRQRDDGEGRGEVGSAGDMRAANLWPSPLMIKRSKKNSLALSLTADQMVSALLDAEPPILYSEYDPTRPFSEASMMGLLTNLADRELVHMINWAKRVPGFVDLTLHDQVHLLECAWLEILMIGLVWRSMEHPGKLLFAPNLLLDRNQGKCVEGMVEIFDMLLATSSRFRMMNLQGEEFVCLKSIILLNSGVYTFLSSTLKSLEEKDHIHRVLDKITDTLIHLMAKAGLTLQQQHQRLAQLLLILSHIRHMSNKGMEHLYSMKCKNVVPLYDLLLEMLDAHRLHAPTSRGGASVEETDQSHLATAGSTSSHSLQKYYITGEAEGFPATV

Assay [1] addresses Vascular endothelial growth factor receptor 2 (Homo sapiens, UniProt P35968). In kind it is functional.
The target in assay [2] is Sodium-dependent noradrenaline transporter (Homo sapiens, UniProt P23975).
Another assay addresses T2, Thromboxane A2 receptor (Homo sapiens, UniProt P21731).
T2 sequence (P21731 whole entry): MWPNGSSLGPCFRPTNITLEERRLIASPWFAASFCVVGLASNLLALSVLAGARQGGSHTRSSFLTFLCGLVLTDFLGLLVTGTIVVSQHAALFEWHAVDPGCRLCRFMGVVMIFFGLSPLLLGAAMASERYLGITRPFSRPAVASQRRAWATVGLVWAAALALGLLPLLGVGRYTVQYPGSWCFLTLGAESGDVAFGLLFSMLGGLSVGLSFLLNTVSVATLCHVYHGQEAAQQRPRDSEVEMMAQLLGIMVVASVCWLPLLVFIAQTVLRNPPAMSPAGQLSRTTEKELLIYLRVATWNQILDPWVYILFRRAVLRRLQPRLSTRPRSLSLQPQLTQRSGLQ

The target in assay [3] is T3, Neuropeptide Y receptor type 1 (Homo sapiens, UniProt P25929).
T3 sequence (P25929 whole entry): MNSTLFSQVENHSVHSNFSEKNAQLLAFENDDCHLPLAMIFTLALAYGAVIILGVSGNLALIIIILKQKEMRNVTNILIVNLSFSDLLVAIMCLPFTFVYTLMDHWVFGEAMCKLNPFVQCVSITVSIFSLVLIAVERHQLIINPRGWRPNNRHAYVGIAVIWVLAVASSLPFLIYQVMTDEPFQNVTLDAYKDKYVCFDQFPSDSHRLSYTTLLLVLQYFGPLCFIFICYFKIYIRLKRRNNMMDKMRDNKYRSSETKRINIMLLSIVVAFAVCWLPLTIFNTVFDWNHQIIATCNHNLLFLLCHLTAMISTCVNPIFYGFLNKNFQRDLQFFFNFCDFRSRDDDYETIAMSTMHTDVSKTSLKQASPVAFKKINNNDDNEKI

The target in assay [4] is Gamma-aminobutyric acid receptor subunit alpha-1 (Rattus norvegicus, UniProt P62813). The format is functional.
Assay [5] addresses T4, Muscarinic acetylcholine receptor M2 (Homo sapiens, UniProt P08172).
T4 sequence (P08172 whole entry): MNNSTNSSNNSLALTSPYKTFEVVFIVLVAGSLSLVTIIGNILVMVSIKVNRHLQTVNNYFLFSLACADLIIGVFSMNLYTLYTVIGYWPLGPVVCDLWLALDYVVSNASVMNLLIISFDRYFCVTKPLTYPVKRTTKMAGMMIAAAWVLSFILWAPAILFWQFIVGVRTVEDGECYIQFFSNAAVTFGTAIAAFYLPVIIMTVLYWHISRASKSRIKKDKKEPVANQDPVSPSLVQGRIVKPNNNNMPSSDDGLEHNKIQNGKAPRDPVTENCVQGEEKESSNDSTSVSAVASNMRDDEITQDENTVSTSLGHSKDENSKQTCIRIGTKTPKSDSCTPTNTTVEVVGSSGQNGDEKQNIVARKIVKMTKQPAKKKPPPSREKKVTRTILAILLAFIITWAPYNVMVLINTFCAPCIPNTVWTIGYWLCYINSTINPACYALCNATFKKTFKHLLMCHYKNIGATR
In kind it is functional, cell-based.

Assay [6] deals with T5, Gastrin/cholecystokinin type B receptor (Homo sapiens, UniProt P32239).
T5 sequence (P32239 whole entry): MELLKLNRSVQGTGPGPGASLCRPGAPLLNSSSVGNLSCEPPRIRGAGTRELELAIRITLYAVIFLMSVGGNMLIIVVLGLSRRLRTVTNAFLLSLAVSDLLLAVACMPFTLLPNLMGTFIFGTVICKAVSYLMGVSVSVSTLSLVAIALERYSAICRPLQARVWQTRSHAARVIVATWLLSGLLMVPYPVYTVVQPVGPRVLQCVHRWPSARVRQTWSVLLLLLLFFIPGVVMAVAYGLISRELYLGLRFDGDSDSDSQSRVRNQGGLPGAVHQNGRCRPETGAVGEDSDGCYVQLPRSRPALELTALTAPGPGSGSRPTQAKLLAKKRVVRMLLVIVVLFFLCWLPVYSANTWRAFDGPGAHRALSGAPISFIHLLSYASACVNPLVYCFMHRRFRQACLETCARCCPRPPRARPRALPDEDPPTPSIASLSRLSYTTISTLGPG
Note: assay procedure not described here.

Chain of Cannabinoid receptor 1 (P21554 whole entry): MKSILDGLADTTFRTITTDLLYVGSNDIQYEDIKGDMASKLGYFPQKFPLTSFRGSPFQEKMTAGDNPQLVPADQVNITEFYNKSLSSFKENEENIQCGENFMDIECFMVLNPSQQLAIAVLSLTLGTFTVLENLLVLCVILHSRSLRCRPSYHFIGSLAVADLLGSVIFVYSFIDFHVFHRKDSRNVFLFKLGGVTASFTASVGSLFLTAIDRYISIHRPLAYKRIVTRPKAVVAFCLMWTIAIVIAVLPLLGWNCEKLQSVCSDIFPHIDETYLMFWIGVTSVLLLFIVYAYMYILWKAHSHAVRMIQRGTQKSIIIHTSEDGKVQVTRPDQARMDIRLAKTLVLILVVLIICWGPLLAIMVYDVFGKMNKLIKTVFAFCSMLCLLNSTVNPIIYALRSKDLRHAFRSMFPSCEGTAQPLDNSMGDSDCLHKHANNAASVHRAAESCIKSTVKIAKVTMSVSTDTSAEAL
Chain of Sodium-dependent noradrenaline transporter (P23975 whole entry): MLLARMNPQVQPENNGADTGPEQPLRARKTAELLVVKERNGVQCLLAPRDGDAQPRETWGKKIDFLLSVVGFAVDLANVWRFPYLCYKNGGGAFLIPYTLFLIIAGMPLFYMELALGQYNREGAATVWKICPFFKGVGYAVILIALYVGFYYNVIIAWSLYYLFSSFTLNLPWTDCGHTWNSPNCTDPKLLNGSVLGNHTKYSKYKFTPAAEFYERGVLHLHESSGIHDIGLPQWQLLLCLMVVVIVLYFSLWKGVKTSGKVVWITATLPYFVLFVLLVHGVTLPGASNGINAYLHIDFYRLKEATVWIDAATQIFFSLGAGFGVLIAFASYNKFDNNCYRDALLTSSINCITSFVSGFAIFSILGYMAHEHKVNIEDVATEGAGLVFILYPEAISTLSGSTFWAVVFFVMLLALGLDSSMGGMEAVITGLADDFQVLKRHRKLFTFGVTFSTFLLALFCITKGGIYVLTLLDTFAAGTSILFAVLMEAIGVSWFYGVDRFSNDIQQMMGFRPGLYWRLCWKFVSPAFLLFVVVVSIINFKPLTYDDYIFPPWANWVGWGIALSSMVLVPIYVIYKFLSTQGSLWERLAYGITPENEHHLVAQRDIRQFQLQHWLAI
Chain of D(3) dopamine receptor (P35462 whole entry): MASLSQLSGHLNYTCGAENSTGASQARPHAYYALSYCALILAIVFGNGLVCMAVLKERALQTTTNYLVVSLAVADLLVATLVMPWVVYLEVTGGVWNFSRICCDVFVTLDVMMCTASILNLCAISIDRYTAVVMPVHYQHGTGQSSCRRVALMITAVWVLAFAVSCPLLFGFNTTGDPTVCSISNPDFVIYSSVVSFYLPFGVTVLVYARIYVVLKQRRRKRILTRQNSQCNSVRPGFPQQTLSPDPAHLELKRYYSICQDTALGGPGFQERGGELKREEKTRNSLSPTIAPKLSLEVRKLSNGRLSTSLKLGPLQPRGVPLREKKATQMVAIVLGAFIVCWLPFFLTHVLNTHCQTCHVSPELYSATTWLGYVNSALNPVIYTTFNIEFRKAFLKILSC
Chain of Melanocortin receptor 3 (P41968 whole entry): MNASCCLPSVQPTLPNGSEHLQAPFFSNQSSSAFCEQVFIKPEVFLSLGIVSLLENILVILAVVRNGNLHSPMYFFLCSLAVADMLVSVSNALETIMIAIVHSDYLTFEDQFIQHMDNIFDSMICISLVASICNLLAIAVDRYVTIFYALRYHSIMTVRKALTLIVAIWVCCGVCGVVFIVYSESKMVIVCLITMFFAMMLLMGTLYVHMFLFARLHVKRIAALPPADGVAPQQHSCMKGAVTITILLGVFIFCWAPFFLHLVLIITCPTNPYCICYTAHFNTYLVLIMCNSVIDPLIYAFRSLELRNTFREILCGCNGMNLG
Chain of Vascular endothelial growth factor receptor 2 (P35968 whole entry): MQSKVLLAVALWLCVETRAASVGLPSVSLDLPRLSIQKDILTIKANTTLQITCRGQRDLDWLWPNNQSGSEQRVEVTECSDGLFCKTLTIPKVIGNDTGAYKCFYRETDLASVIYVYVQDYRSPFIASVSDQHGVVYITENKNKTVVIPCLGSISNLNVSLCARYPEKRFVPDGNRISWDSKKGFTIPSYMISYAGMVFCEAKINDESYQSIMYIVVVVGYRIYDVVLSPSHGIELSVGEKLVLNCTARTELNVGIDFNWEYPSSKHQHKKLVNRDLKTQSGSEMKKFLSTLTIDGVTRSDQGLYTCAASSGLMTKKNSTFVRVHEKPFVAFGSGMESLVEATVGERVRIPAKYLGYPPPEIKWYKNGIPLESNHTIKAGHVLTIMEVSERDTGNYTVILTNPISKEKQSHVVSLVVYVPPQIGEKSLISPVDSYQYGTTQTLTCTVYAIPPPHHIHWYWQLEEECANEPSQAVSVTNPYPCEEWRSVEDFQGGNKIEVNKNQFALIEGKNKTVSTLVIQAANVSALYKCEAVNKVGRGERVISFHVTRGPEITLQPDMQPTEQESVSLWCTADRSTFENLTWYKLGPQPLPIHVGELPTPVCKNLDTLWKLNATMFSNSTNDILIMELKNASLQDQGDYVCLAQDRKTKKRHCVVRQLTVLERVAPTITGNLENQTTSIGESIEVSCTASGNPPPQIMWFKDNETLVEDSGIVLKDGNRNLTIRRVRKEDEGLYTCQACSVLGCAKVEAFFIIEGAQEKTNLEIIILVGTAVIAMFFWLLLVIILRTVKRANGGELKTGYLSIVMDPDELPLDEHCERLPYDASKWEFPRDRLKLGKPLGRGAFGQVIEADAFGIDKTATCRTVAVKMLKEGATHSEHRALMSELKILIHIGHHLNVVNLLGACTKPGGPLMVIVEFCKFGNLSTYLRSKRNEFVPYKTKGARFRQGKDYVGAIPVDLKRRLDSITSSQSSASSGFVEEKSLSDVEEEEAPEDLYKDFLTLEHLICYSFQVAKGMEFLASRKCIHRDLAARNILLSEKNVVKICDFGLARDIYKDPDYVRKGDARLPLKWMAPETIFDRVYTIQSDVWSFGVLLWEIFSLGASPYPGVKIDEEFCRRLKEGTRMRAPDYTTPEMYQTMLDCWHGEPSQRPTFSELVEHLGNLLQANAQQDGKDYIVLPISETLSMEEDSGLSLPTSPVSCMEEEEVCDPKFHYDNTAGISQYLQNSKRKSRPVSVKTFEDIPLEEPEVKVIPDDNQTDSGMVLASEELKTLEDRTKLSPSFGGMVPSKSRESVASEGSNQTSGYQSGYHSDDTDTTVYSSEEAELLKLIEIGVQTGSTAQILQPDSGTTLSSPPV
Chain of Gamma-aminobutyric acid receptor subunit alpha-1 (P62813 whole entry): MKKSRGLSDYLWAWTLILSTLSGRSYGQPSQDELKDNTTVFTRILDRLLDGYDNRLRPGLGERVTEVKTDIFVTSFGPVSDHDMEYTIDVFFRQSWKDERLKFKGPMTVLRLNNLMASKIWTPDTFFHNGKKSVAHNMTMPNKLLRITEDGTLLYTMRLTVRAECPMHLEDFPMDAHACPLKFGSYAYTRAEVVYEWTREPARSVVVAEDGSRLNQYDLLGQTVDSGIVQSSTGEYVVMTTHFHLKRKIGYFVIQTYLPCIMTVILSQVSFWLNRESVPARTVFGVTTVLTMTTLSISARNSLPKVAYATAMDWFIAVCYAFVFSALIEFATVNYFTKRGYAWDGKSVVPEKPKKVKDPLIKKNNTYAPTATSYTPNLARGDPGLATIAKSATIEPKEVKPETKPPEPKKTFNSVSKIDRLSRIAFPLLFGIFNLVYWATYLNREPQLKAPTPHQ
Chain of Adenosine receptor A2a (P29274 whole entry): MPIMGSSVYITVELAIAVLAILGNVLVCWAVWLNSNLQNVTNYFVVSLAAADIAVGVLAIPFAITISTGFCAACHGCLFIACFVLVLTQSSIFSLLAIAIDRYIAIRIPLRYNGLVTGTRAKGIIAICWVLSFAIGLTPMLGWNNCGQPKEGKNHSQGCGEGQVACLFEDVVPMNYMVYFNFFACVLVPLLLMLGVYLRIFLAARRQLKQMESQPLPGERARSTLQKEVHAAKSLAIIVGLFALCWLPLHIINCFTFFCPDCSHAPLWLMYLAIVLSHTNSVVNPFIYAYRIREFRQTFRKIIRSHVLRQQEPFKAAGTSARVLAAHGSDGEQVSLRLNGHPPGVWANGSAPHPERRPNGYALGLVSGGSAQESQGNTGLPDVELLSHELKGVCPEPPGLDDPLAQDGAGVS

In the case of `CN(C)c1ccc(C(=C2C=CC(=[N+](C)C)C=C2)c2ccc(N(C)C)cc2)cc1` [GENTIAN VIOLET], the AC50 at Estrogen receptor was over 30 µM; in [1], 2970 nM; in [2] it was 4.7 µM; on D(3) dopamine receptor, 1210 nM.

In the case of HYDROXOCOBALAMIN, the AC50 (at Thromboxane A2 receptor; on Melanocortin receptor 3; in assay [3]; in [4]; in assay [5]; in assay [6]) was over 30 µM throughout. Further, the concentration at half-maximal activity (AC50) on Adenosine receptor A2a and at Cannabinoid receptor 1 was over 30 µM each time.
